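A five-concentration, 48-hour dose response in 96-well plates underlies each endpoint, interpolated linearly between surrounding concentrations. GI50 marks 50% less growth.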 Activity calls are given as the source filed them. No stated cut-off is given here; in the data, active = GI50 up to about 1.1 µM and inactive = higher.

What all share (assay): inhibition of tumour cell growth, NCI panel, 48 h
The subject of assay [1] is NCI-H23.
Assay [2] concerns M14.
In assay [3] the test system is COLO 205.
The subject of assay [4] is RPMI-8226.
For assay [5], the system named is K562.
The test system of assay [6] is PC-3.
Assay [7] concerns UACC-62.
In assay [8] the test system is HL-60.
In assay [9] the test system is IGROV-1.
In assay [10] the test system is SF-268.
The test system of assay [11] is MOLT-4.
Assay [12] concerns HOP-62.
Assay [13] has as its system SR.
Assay [14] relates to SK-MEL-5.
The subject of assay [15] is MDA-MB-435.
Assay [16] deals with CCRF-CEM.
Assay [17] concerns ACHN.
In assay [18] the test system is NCI-H460.
The test system of assay [19] is HCT-116.
Assay [20] concerns BT-549.

As for `CN(C)c1n/c(=N/Cc2cccnc2)ss1`, the GI50 in assay [1] was > 10 µM (inactive); in [2], > 10 µM (inactive); in [3] it was > 10 µM (inactive); in [4] it was > 10 µM (inactive); in [5], 1.12 µM (active); in [6] it was > 10 µM (inactive). Also, the GI50 in assay [7] was > 10 µM (inactive); in [8], 3.24 µM (inactive); in [9], > 10 µM (inactive); in [10] it was > 10 µM (inactive); in [11], 3.5 µM (inactive); in assay [12], > 10 µM (inactive). Besides, the GI50 is 2.09 µM (inactive) in assay [13], > 10 µM (inactive) in [14], > 10 µM (inactive) in assay [15] and 0.597 µM (active) in assay [16].
Take `O=C(C1OC1c1ccc(Br)cc1O)C12CC3CC(CC(C3)C1)C2` (stereo not drawn): the GI50 in assay [1] was 19.2 µM (inactive); in assay [2], 18.1 µM (inactive); in assay [4] it was 17.8 µM (inactive); in [5], 15.4 µM (inactive); in [6], 23.6 µM (inactive); in assay [7], 15.5 µM (inactive). Besides, the GI50 in assay [8] was 16.9 µM (inactive); in [17] it was 33.9 µM (inactive); in assay [9] it was 32 µM (inactive); in assay [10] it was 31.7 µM (inactive); in assay [11] it was 16.1 µM (inactive); in assay [12] it was 26.2 µM (inactive). For the same compound, the GI50 in assay [18] was 27.6 µM (inactive); in [19] it was 14.9 µM (inactive); in [14], 19.5 µM (inactive); in assay [15], 13.8 µM (inactive); in [16] it was 23.5 µM (inactive).
For `CC12C3CC4C5CC(C(C53)[C@@H]1NCc1ccccc1)C42` (stereo partly drawn), the GI50 is > 100 µM (inactive) in assay [1]; > 100 µM (inactive) in assay [2]; 18.5 µM (inactive) in assay [3]; > 100 µM (inactive) in assay [4]; 62.7 µM (inactive) in [5]; > 100 µM (inactive) in [7]. The GI50 in [8], in [17], in assay [9], in assay [10], in assay [11] and in assay [12] was > 100 µM (inactive) throughout. Besides, the GI50 in assay [13] was > 100 µM (inactive); in assay [18], > 100 µM (inactive); in assay [19], > 100 µM (inactive); in [14] it was 31.5 µM (inactive); in [16] it was > 100 µM (inactive).
As to `COC(=O)n1c(CBr)c(Br)c2ccccc21`, the GI50 in assay [1] was 22.7 µM (inactive); in assay [2], > 100 µM (inactive); in assay [3], > 100 µM (inactive); in assay [4] it was 21 µM (inactive); in assay [5], 25.4 µM (inactive); in [7], 28.1 µM (inactive). The GI50 is 22.4 µM (inactive) in assay [8]; 18.6 µM (inactive) in [17]; 20.9 µM (inactive) in [9]; 25.6 µM (inactive) in assay [10]; 26.2 µM (inactive) in [11]; 21.2 µM (inactive) in [12]. Besides, the GI50 is 24.8 µM (inactive) in [13]; 24.3 µM (inactive) in assay [18]; 39.4 µM (inactive) in assay [19]; 51.5 µM (inactive) in [14]; 23.9 µM (inactive) in assay [16].
With `CCCCN(CC)C(=O)C1=C(C)NC(C)=C(C(=O)N(CC)CCCC)C1`, the GI50 is > 100 µM (inactive) in assay [1]; > 100 µM (inactive) in assay [2]; > 100 µM (inactive) in [3]; > 100 µM (inactive) in assay [20]; 57.7 µM (inactive) in [7]; 89.1 µM (inactive) in assay [8]. Further, the GI50 in assay [17] is > 100 µM (inactive); in assay [9] it was 97.7 µM (inactive); in [10] it was > 100 µM (inactive); in assay [11], > 100 µM (inactive); in assay [12], > 100 µM (inactive); in assay [18], > 100 µM (inactive). The GI50 is > 100 µM (inactive) in [19], > 100 µM (inactive) in [14] and 80 µM (inactive) in [15].
Consider `CCCCCCCCOCC(O)CO` (stereo not drawn), for which the GI50 in assay [1] is > 100 µM (inactive); in assay [2], > 100 µM (inactive); in assay [3] it was > 100 µM (inactive); in assay [4] it was 44.6 µM (inactive); in [5], > 100 µM (inactive); in [7], > 100 µM (inactive). Further, the GI50 in [8] was > 100 µM (inactive); in [17], > 100 µM (inactive); in assay [9], > 100 µM (inactive); in [10] it was > 100 µM (inactive); in [11], 44.7 µM (inactive); in assay [12], > 100 µM (inactive). In addition, the GI50 was 45.9 µM (inactive) in assay [13]; > 100 µM (inactive) in assay [18]; > 100 µM (inactive) in [19]; > 100 µM (inactive) in assay [14]; 4.52 µM (inactive) in [16].
Consider `COC(=O)CCCc1ccc2c(c1)CC1(Cc3ccccc3C1)C2`, for which the GI50 in assay [1] is 46.3 µM (inactive); in assay [2] it was 44.4 µM (inactive); in [3], 26.3 µM (inactive); in assay [4] it was 28.4 µM (inactive); in assay [6], 41.1 µM (inactive); in assay [7], > 100 µM (inactive). Further, the GI50 in assay [17] was 75.3 µM (inactive); in assay [9] it was > 100 µM (inactive); in [11], 0.333 µM (active); in assay [12], > 100 µM (inactive); in [19], 26 µM (inactive); in assay [14], 20.1 µM (inactive). Besides, the GI50 in assay [15] is 20.6 µM (inactive); in [16] it was 29.6 µM (inactive).
As to `Cc1ccc(NC(=O)/C(=N/NC(=O)CC#N)C2C(=O)N(c3ccccc3)N=C2N)cc1C` (stereo not drawn), the GI50 in assay [1], in assay [2], in assay [3], in assay [4], in [5] and in [7] was > 100 µM (inactive) throughout. The GI50 in assay [8], in assay [17], in assay [9], in assay [10], in [11] and in [12] was > 100 µM (inactive) throughout. For the same compound, the GI50 in assay [13], in assay [18], in [19], in assay [14] and in assay [16] was > 100 µM (inactive) throughout.
For the compound `CC(C)(CN1CCCCC1)C(=O)/C=C/c1ccc(Cl)cc1`, the GI50 in assay [1] was 2.69 µM (inactive); in assay [2], 2.51 µM (inactive); in assay [3], 4.82 µM (inactive); in assay [4] it was 2.94 µM (inactive); in [5] it was 2.69 µM (inactive); in assay [7] it was 5.35 µM (inactive). Moreover, the GI50 is 2.15 µM (inactive) in assay [8]; 5.12 µM (inactive) in assay [17]; > 10 µM (inactive) in [9]; 3.34 µM (inactive) in assay [10]; 1.81 µM (inactive) in [11]; > 10 µM (inactive) in assay [12]. Moreover, the GI50 in [13] was 2.58 µM (inactive); in [18] it was 2.69 µM (inactive); in [19] it was 3.4 µM (inactive); in assay [14], 3.08 µM (inactive); in [16], 2.09 µM (inactive).
On to `CCCCCCCCCCCCCCCCCC(=O)OCC(C[As](=O)(O)O)OC(=O)CCCCCCCCCCCCCCCCC` (stereo not drawn), for which the GI50 in assay [1] was 34 µM (inactive); in assay [2] it was > 100 µM (inactive); in assay [4], 28.3 µM (inactive); in [5] it was 44.7 µM (inactive); in [7], > 100 µM (inactive); in assay [8], > 100 µM (inactive). For the same compound, the GI50 in assay [17] is 34.3 µM (inactive); in assay [9], 52.5 µM (inactive); in [10], 43.2 µM (inactive); in [11], > 100 µM (inactive); in assay [12], 24.4 µM (inactive); in [13], 18.4 µM (inactive). Further, the GI50 in [18] is > 100 µM (inactive); in [19], 60.1 µM (inactive); in assay [14], > 100 µM (inactive); in assay [16], 39 µM (inactive).
As for `CC(C)=C[C@@H]1C[C@H](n2cc(C)c(=O)[nH]c2=O)ON1CCO`, the GI50 in [2], in assay [3], in [4], in assay [5], in assay [6] and in assay [7] was > 100 µM (inactive) throughout. The GI50 in assay [8] is 3.08 µM (inactive); in assay [17] it was > 100 µM (inactive); in assay [9] it was > 100 µM (inactive); in assay [10] it was > 100 µM (inactive); in assay [11] it was > 100 µM (inactive); in [12], > 100 µM (inactive). Moreover, the GI50 in assay [13], in assay [18], in assay [19], in assay [14], in assay [15] and in assay [16] was > 100 µM (inactive) in each case.
Regarding `CN(C)CCC1(C2=CCCC2)CC/C(=C\c2ccc(Cl)cc2)C1=O` (stereo not drawn), the GI50 was 14.5 µM (inactive) in assay [1]; 2.01 µM (inactive) in assay [2]; 12.4 µM (inactive) in assay [3]; 5.73 µM (inactive) in assay [4]; 2.58 µM (inactive) in assay [5]; 3.08 µM (inactive) in assay [7]. For the same compound, the GI50 in assay [8] was 1.6 µM (inactive); in [17], 11.5 µM (inactive); in [9], 7.14 µM (inactive); in [10] it was 11.8 µM (inactive); in [11], 2.24 µM (inactive); in assay [12] it was 16.9 µM (inactive). Besides, the GI50 in assay [13] is 4.51 µM (inactive); in assay [18] it was 10.9 µM (inactive); in [19], 8.77 µM (inactive); in [14], 1.99 µM (inactive); in [16] it was 2.38 µM (inactive).

Source of the values: ChEMBL document CHEMBL1201862, “PubChem BioAssay data set” (2004).
